One data set relates to honeybee. As to conditions: cited from earlier work.
Data set [1] addresses T1, CYP9Q4 (Bombus terrestris, UniProt A0A9B0BBT5). Kind of data set: Activity of recombinant CYP9Q4 against fluorescent coumarin model substrates. The data set is classed as biochemical, B. terrestris. How it is done:
(§1) The activity of individual A. mellifera and B. terrestris recombinant P450s were tested against seven fluorescent model substrates (all purchased from Sigma); 7-methoxy-coumarin (MC), 7-Methoxy-4-(tri-fluoromethyl)-coumarin (MFC), 7-ethoxy-coumarin (EC), 7-benzyloxy-4-(trifluoromethyl)-coumarin (BFC), 7-ethoxy-4-trifluoro-methylcoumarin (EFC), 7-benzyloxymethoxy-4-trifluoromethyl coumarin (BOMFC), and 7-p-methoxy-benzyloxy-4-trifluoro coumarin (MOBFC). Assays were carried out in black flat-bottomed 96-well plates in a 100 μL reaction containing 2 pmol of P450 per 50 μg of protein (B. terrestris) or 50 μg/well (A. mellifera), 1 mM of NADPH (Sigma) and […] of a model substrate (Sigma). Three replicates were carried out for each data point. P450s incubated without NADPH and wells containing only potassium phosphate buffer served as controls. Samples were incubated at 25°C for 45 min (B. terrestris) or 30°C for 30 min (A. mellifera). Data were recorded using a SpectraMax Gemini XPS (B. terrestris) or a SpectraMax M2 (A. mellifera) at the excitation/emission wavelength suitable for each model substrate (MC, EC at 390-465, BFC, MFC at 410-535, EFC at 410-510 and BOMFC and MOBFC at 405-510 nm). As these substrates have a similar emission wavelength to NADPH (460 nm) the reaction was terminated prior to measurement by the addition of 100μL of a stop solution (25% DMSO, 0.05 M Tris/HCL pH10, 5 mM glutathione oxidised, and 0.2 U glutathione reductase). The reactions were incubated at 25°C (B. terrestris) or 30°C (A. mellifera) for a further 15 min and the data were recorded at the required excitation/emission wavelengths stated above. 7-hydroxy-4-(trifluoromethyl)-coumarin (HFC) (Sigma) was used to generate a standard curve for model substrates BFC, EFC, MFC, MOBFC, and BOMFC and 7-hydroxycoumarin (HC) (Sigma) for model substrates EC and MC. […] The florescence was measured as above at the corresponding wavelengths for each model substrate. […] This was then subtracted from the average fluorescence measurement of each P450 along with the average control measurements.

The target in data set [2] is T2, CYP9Q3 (Apis mellifera, UniProt A0A7M7LMV1). In words: Activity of recombinant CYP9Q3 against fluorescent coumarin model substrates. The data set is classed as biochemical, A. mellifera. As to the method:
as §1, with “Three replicates were carried out for each data point. P450s incubated without NADPH and wells containing only potassium phosphate buffer served as controls. Samples were incubated at 25°C for 45 min (B. terrestris) or 30°C for 30 min (A. mellifera).” left out, “As these substrates have a similar emission wavelength to NADPH (460 nm) the reaction was terminated prior to measurement by the addition of 100μL of a stop solution (25% DMSO, 0.05 M Tris/HCL pH10, 5 mM glutathione oxidised, and 0.2 U glutathione reductase).” left out, “above.” for “above. 7-hydroxy-4-(trifluoromethyl)-coumarin (HFC) (Sigma) was used to generate a standard curve for model substrates BFC, EFC, MFC, MOBFC, and BOMFC and 7-hydroxycoumarin (HC) (Sigma) for model substrates EC and MC.”

For data set [3], the target named is T3, CYP9Q1 (Apis mellifera, UniProt A0A7M7GTV9). Kind of data set: Activity of recombinant CYP9Q1 against fluorescent coumarin model substrates. The data set is classed as biochemical, A. mellifera. As to the method: as §1, with “Three replicates were carried out for each data point. P450s incubated without NADPH and wells containing only potassium phosphate buffer served as controls. Samples were incubated at 25°C for 45 min (B. terrestris) or 30°C for 30 min (A. mellifera).” left out, “As these substrates have a similar emission wavelength to NADPH (460 nm) the reaction was terminated prior to measurement by the addition of 100μL of a stop solution (25% DMSO, 0.05 M Tris/HCL pH10, 5 mM glutathione oxidised, and 0.2 U glutathione reductase).” left out, “above.” for “above. 7-hydroxy-4-(trifluoromethyl)-coumarin (HFC) (Sigma) was used to generate a standard curve for model substrates BFC, EFC, MFC, MOBFC, and BOMFC and 7-hydroxycoumarin (HC) (Sigma) for model substrates EC and MC.”

Data set [4] deals with CYP9Q5. Kind of data set: Activity of recombinant CYP9Q5 against fluorescent coumarin model substrates. The data set is classed as biochemical, B. terrestris. As to the method: as §1, with “Three replicates were carried out for each data point. P450s incubated without NADPH and wells containing only potassium phosphate buffer served as controls. Samples were incubated at 25°C for 45 min (B. terrestris) or 30°C for 30 min (A. mellifera).” left out, “As these substrates have a similar emission wavelength to NADPH (460 nm) the reaction was terminated prior to measurement by the addition of 100μL of a stop solution (25% DMSO, 0.05 M Tris/HCL pH10, 5 mM glutathione oxidised, and 0.2 U glutathione reductase).” left out, “above.” for “above. 7-hydroxy-4-(trifluoromethyl)-coumarin (HFC) (Sigma) was used to generate a standard curve for model substrates BFC, EFC, MFC, MOBFC, and BOMFC and 7-hydroxycoumarin (HC) (Sigma) for model substrates EC and MC.”

Data set [5] addresses T1, CYP9Q4. Kind of data set: Metabolism by recombinant CYP9Q4/CPR microsomes, LC-MS/MS. As to conditions: hydroxylation (thiacloprid) or N-desmethylation (acetamiprid). The text has this: (§2) All bee P450 (see Table S3 for accession numbers) and house fly NADPH-dependent cytochrome P450 reductase (CPR) (GenBank accession number Q07994) genes were obtained by gene synthesis (Geneart, CA, USA) and inserted into the pDEST8 expression vector (Invitrogen). Codon optimization of all bee genes was used to optimize expression in lepidopteran cell lines. The PFastbac1 vector with no inserted DNA was used to produce a control virus. The recombinant baculovirus DNA was constructed and transfected into Trichoplusia ni (High five cells, Thermo Fisher) using the Bac-to-Bac baculovirus expression system (Invitrogen) according to the manufacturer’s instructions. The titer of the recombinant virus was determined following protocols of the supplier. High Five cells grown to a density of 2 × 10^6 cells ml^-1 were co-infected with recombinant baculoviruses containing each bee P450 and CPR with a range of MOI (multiplicity of infection) ratios to identify the optimal conditions. Control cells were co-infected with the baculovirus containing vector with no insert (ctrl-virus) and the recombinant baculovirus expressing CPR using the same MOI ratios. Ferric citrate and δ-aminolevulinic acid hydrochloride were added to a final concentration of 0.1 mM at the time of infection and 24 h after infection to compensate the low levels of endogenous heme in the insect cells. After 48 h, cells were harvested, washed with PBS, and microsomes of the membrane fraction prepared according to standard procedures and stored at −80°C [31]. Briefly, pellets were homogenized for 30 s in 0.1M Na/K-phosphate buffer, pH 7.4 containing 1mM EDTA and DTT and 200mM sucrose using a Fastprep (MP Biomedicals), filtered through miracloth and centrifuging for 10 min at 680 g at 4°C. The supernatant was then centrifuged for 1 h at 100,000 g at 4°C, with the pellet subsequently resuspended in 0.1M Na/K-phosphate buffer, pH 7.6 containing 1mM EDTA and DTT and 10% glycerol using a Dounce tissue grinder. P450 expression and functionality was estimated by measuring CO-difference spectra in reduced samples using a Specord 200 Plus Spectrophotometer (Analytik Jena) and scanning from 500 nm to 400 nm. The protein content of samples was determined using Bradford reagent (Sigma) and bovine serum albumin (BSA) as a reference.
(§3) The total assay volume was 200 μL using three replicates for each data point. […] The assay was stopped by the addition of ice-cold acetonitrile (to 80% final concentration), centrifuged for 10 min at 3000 g and the supernatant subsequently analyzed by tandem mass spectrometry as described previously. […] Substrate turnover from two independent reactions were plotted versus controls and Michaelis-Menten kinetics determined using GraphPad Prism version 7 (GraphPad Software, CA, USA).

In another data set the target is T4, CYP9Q2 (Apis mellifera, UniProt A0A7M7R6F2).
T4 sequence (A0A7M7R6F2 1-532): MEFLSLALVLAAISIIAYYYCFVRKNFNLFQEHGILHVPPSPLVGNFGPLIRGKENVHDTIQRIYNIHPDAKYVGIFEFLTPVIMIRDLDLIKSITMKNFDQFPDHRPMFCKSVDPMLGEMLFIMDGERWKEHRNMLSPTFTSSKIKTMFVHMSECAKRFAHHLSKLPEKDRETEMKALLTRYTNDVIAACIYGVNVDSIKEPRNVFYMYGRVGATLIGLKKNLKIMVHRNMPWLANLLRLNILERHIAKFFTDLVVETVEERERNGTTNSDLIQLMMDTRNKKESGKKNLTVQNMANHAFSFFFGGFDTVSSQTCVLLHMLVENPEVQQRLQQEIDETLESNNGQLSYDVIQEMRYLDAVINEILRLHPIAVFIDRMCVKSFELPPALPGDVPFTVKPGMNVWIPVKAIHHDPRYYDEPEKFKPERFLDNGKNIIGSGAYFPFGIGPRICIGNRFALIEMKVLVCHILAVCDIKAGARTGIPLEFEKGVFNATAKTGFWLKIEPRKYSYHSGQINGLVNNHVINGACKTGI
T4 sequence (Q07994 1-671 partner): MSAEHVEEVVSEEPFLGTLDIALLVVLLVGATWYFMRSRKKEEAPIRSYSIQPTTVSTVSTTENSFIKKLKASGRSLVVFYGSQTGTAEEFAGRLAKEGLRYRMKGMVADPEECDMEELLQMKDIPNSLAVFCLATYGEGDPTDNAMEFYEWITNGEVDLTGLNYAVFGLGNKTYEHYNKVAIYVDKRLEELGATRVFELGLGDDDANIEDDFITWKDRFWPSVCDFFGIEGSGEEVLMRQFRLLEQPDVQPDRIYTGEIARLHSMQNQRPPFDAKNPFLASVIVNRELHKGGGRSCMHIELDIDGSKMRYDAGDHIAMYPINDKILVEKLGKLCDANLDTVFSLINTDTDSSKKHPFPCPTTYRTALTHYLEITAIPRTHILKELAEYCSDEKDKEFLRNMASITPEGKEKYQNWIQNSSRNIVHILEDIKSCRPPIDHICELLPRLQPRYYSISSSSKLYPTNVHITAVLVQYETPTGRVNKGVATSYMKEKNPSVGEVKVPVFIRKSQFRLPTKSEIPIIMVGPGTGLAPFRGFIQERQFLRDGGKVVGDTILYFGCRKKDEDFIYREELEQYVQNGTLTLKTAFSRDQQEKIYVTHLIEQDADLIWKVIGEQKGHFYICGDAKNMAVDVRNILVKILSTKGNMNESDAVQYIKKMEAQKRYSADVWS
Kind of data set: in vitro. Conditions: hydroxylation (thiacloprid, imidacloprid) or N-desmethylation (acetamiprid).
Text: as §2
(§4) The total assay volume was 200 μL using three replicates for each data point. Microsomes incubated without NADPH served as a control. The assay was stopped by the addition of ice-cold acetonitrile (to 80% final concentration), centrifuged for 10 min at 3000 g and the supernatant subsequently analyzed by tandem mass spectrometry as described previously. For the chromatography on a Waters Acquity HSS T3 column (2.1x50mm, 1.8μm), acetonitrile/water/0.1% formic acid was used as the eluent in gradient mode. […] The peak integrals were calibrated externally against a standard calibration curve. […] Substrate turnover from two independent reactions were plotted versus controls and Michaelis-Menten kinetics determined using GraphPad Prism version 7 (GraphPad Software, CA, USA).

In data set [6] the target is T3, CYP9Q1. In words: in vitro. As to conditions: hydroxylation (thiacloprid, imidacloprid) or N-desmethylation (acetamiprid).
Text: as §2, §4

For data set [7], the target named is T2, CYP9Q3. In words: in vitro. As to conditions: hydroxylation (thiacloprid, imidacloprid) or N-desmethylation (acetamiprid).
Text: as §2, §4

Data set [8] deals with CYP9Q5. In words: Metabolism by recombinant CYP9Q5/CPR microsomes, LC-MS/MS. Conditions: hydroxylation (thiacloprid) or N-desmethylation (acetamiprid).
Text: as §2, §3

Each structure is given as a SMILES string.

T1 sequence (A0A9B0BBT5 entry or part of it, one chain of several): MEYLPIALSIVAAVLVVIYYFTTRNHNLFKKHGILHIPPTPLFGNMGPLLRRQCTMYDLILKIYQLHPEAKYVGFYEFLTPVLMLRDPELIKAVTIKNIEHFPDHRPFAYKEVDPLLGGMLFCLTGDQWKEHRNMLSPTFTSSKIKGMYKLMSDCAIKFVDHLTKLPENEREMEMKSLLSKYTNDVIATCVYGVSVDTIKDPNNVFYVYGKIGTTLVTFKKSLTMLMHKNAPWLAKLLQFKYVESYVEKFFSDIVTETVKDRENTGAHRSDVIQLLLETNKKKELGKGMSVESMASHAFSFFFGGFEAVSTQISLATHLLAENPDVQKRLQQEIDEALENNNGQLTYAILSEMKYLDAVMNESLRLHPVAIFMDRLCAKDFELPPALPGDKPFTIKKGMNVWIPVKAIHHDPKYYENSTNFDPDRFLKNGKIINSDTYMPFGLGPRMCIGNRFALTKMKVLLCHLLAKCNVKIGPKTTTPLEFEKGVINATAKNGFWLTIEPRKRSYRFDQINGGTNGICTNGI
T3 sequence (A0A7M7GTV9 entry or part of it, one chain of several): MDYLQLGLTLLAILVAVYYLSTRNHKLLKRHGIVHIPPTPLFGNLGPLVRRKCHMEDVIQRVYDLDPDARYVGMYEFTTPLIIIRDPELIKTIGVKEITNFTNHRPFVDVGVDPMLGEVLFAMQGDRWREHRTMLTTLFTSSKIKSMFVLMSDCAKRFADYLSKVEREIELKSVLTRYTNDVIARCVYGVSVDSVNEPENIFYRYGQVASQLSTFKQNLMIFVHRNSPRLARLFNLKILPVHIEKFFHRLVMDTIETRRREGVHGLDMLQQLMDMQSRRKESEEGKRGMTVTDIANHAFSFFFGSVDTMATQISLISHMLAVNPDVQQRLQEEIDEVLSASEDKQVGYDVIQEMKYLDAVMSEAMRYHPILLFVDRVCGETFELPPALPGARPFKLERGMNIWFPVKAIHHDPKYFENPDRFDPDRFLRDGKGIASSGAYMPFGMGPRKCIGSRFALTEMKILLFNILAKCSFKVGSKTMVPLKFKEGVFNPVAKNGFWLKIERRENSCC
T2 sequence (A0A7M7LMV1 entry or part of it, one chain of several): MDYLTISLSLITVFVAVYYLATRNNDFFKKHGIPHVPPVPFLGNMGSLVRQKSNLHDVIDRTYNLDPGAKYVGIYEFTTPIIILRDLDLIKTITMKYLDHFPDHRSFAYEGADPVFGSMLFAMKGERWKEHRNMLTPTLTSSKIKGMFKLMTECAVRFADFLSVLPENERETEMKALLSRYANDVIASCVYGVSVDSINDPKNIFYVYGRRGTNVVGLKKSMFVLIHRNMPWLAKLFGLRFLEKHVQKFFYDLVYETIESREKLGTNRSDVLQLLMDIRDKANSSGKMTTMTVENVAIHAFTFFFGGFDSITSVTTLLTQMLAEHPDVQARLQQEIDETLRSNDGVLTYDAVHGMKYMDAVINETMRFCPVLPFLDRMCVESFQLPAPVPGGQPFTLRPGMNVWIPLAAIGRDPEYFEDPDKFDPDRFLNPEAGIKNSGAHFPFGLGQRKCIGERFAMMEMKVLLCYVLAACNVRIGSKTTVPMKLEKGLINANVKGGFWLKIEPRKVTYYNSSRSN

Take `CCCC1COC(Cn2cncn2)(c2ccc(Cl)cc2Cl)O1` (stereo not shown) [propiconazole]: the “effect of P450 inhibitor on honeybee sensitivity to imidacloprid” value with honeybee (synergist plus imidacloprid) is given as “almost no effect”. In addition, the “increase of honeybee sensitivity to thiacloprid by P450 inhibitor” value in the data set with honeybee (synergist plus thiacloprid) is given as 559 fold.
`COc1ccc(COc2ccc3c(C(F)(F)F)cc(=O)oc3c2)cc1` [MOBFC, 7-p-methoxy-benzyloxy-4-trifluoro coumarin]: the “activity against fluorescent coumarin model substrate (in words)” value (“activity … (in words)” below) on CYP9Q4 [1] is recorded as “activity”.
For `O=c1cc(C(F)(F)F)c2ccc(OCc3ccccc3)cc2o1` [BFC, 7-benzyloxy-4-trifluoromethyl coumarin], the “activity … (in words)” value on CYP9Q4 [1] is “no activity”; on CYP9Q3 [2], “highest specific activity”; on CYP9Q1 [3] it was “highest specific activity”; with CYP9Q5 [4], “no activity”.
With `C/C(=N\C#N)N(C)Cc1ccc(Cl)nc1` [acetamiprid], the “metabolism by the recombinant P450 (in words)” value at CYP9Q4 [5] was “highest activity”; at CYP9Q2, “highest activity”; on CYP9Q1 [6], “capacity to metabolize”; on CYP9Q3 [7], “highest activity”; with CYP9Q5 [8] it was “highest activity”.
As to `COc1ccc2c(C(F)(F)F)cc(=O)oc2c1` [MFC, 7-methoxy-4-trifluoromethyl coumarin], on CYP9Q4 [1], the “activity … (in words)” value is “activity”.

The values are drawn from publication PMC5887109, “Unravelling the Molecular Determinants of Bee Sensitivity to Neonicotinoid Insecticides” (Current Biology, 2018).
